Results on one substance are retold here after US20130259929A1, “USE OF A PHOSPHOPEPTIDE ABLE TO BLOCK HER3/P85 INTERACTION FOR THE TREATMENT OF HER2 HYPER-EXPRESSING TUMOURS” (priority 2010, published 2013).

For one assay, the system named is MAPK phosphorylation. In words: MAPK (ERK1/2) phosphorylation (Western blot) after peptide transfection. In kind it is cell-based, human. As to conditions: MCF7, BT474 and MDA-MB-453 cells (FIG. 4A); Herceptin where combined. Here is the method: Peptide transfection. In order to inhibit the p85 and ErbB3 interaction, MCF7, BT474 and MDA-MB-453 cell lines have been transfected using 80, 100, and 180 μg, respectively, of the following phosphopeptides:
Treatments and lmmunodecorations. […] Briefly the cells have been plated at 5×10^5 concentration in 60 mm plates. […] At the end of the treatment the cells have been lysed with RIPA buffer [150 mM NaCl, 1% NP-40, 0,5% sodium deoxycholate (DOC), 0.1% SDS, 50 mM TrisHCl (pH 8), 1 mM PMSF, 1 mM EGTA, 50 mM NaF, 50 mM Na3VO4 and protease inhibitors (Roche, Milano, IT)] in order to analyze the expression levels of phosphorylated and total ErbB-3, ErbB-2, ERK and HSP-70 proteins. In order to analyze the levels of Akt phosphorylation and expression, the cells have been lysed in NP-40 buffer [1% NP-40, 10% glycerol, 137 mM NaCl, 20 mM TrisHCl (pH 7.4), 50 mM NaF, 1 mM PMSF, 5 mM Na3VO4, protease inhibitors (Roche, Milano, IT)]. Cell lysates have been incubated on ice for 20 minutes and centrifuged at 14000 rpm for 20 minutes. RIPA buffer obtained cell extracts have been boiled for 5 minutes at 95° C., while NP40 buffer lysed samples have been boiled at 65° C. for 5 minutes. […] After thorough washing, nitrocellulose peroxidase activity has been detected by chemiluminescence (Lite-blot-Euroclone, Milano, IT)

Assay [1] has as its target T1, HER3 binding to GST-N-SH2p85 fusion protein (Homo sapiens, UniProt P27986).
T1 construct: containing SH2 domains in N-terminal portion of p85 sub-unit
Nature of the assay: GST pull-down. As to conditions: lysates of BT474, MCF7 and MDA-MB-453 cells, in vitro (FIG. 2A, FIG. 3). Here is the method:
GST pull-down. MCF-7, BT474 and MDA-MB-453 cell lines have been washed 2 times with cold PBS and extracted with lysis buffer [(50 mM Tris HCl (pH 7.4), 250 mM NaCl, 0,1% Triton X-100, 5 mM EDTA, 50 mM NaF, 1 mM PMSF, 5 mM Na3VO4 and 50 mmol/L of protease inhibitors (Roche, Milano, IT)]. After 20 minute ice-cold incubation, the lysates have been clarified by centrifugation at 14000 rpm for 20 minutes. The cellular extracts (1 mg sample) have been incubated for 4 hours at 4° C. in the presence of GST bound gluthatione-agarose beads or GST-p85 fusion protein (kindly supplied by doctor S. Giordano), in the presence or absence of 1257 phosphopeptide or scr peptide used as control. Then the interaction complexes have been washed six times with lysis buffer and subsequently beads eluted using Laemli Buffer 2× [(140 mM SDS, 432 mM Glycerol, 1.6 mM Bromophenol blue, 120 mM Tris HCl (pH 6.8), 8% β-mercaptoethanol)]. The proteins have been separated using 8% SDS-PAGE and transferred on nitrocellulose filter. The filter has been then immunodecorated with anti ErbB3 antibody.
As in FIG. 2A is apparent that 1257 phosphopeptide effectively in vitro binds p85 sub-unit thus inhibiting HER3 receptor binding.

The test system of another assay is HER3. In words: HER3 expression level (Western blot) after peptide transfection. The assay is classed as cell-based, human. Conditions: after peptide treatment (FIG. 4A); poorly appreciable in MDA-MB-453. As for the experimental part:
Treatments and lmmunodecorations. […] Briefly the cells have been plated at 5×10^5 concentration in 60 mm plates. […] At the end of the treatment the cells have been lysed with RIPA buffer [150 mM NaCl, 1% NP-40, 0,5% sodium deoxycholate (DOC), 0.1% SDS, 50 mM TrisHCl (pH 8), 1 mM PMSF, 1 mM EGTA, 50 mM NaF, 50 mM Na3VO4 and protease inhibitors (Roche, Milano, IT)] in order to analyze the expression levels of phosphorylated and total ErbB-3, ErbB-2, ERK and HSP-70 proteins. In order to analyze the levels of Akt phosphorylation and expression, the cells have been lysed in NP-40 buffer [1% NP-40, 10% glycerol, 137 mM NaCl, 20 mM TrisHCl (pH 7.4), 50 mM NaF, 1 mM PMSF, 5 mM Na3VO4, protease inhibitors (Roche, Milano, IT)]. Cell lysates have been incubated on ice for 20 minutes and centrifuged at 14000 rpm for 20 minutes. RIPA buffer obtained cell extracts have been boiled for 5 minutes at 95° C., while NP40 buffer lysed samples have been boiled at 65° C. for 5 minutes. Samples have been subjected to SDS-PAGE and transferred on nitrocellulose filters (Bio-Rad, Milan, IT). Then the filters have been incubated with interest antibodies, washed and incubated with specific secondary horse radish peroxidase (HRP) conjugated antibodies. After thorough washing, nitrocellulose peroxidase activity has been detected by chemiluminescence (Lite-blot-Euroclone, Milano, IT)

The next assay deals with BT474 cells. Nature of the assay: Cell death and apoptosis (Trypan Blue exclusion). In kind it is cell-based, human. As to conditions: BT474 cells vs parental or scr transfected; Herceptin 1 μg/ml 40 hours where combined. An excerpt: (§1) Cell death and Apoptosis. MCF7, BT474 and MDA-MB-453 cell lines have been plated at 5×10^5 concentration in 60 mm plates. On subsequent day the cells have been transfected with ErbB3 specific interference oligonucleotides or peptides. […] The cells have been washed two times with cold PBS and then trypsin collected. The evaluation of cellular viability has been carried out by means of Trypan Blue exclusion. The use of anti-PARP antibody in Western Blotting analysis allowed apoptosis to be evaluated. Briefly the cells have been lysed in RIPA buffer [150 mM NaCl, 1% NP-40, 0,5% sodium deoxycholate (DOC), 0.1% SDS, 50 mM TrisHCl (pH 8), 1 mM PMSF, 1 mM EGTA, 50 mM NaF, 50 mM Na3VO4 and protease inhibitors (Roche, Milano, IT)]. The samples have been boiled for 5 minutes at 95° C., resolved using SDS-PAGE, transferred on nitrocellulose and blotted using anti-PARP antibody. The tumour cell death analyzed by immunohistochemistry have been obtained using TUNEL assay.

The test system of another assay is MCF7 cells. In words: Cell death and apoptosis (Trypan Blue exclusion). The assay is classed as cell-based, human. As to conditions: MCF7 cells vs parental or scr transfected; Herceptin 1 μg/ml 40 hours where combined.
Text: as §1

The next assay relates to BT474 xenograft. Nature of the assay: Electroporation tumour therapy of BT474 xenografts. In kind it is in vivo, SCID mice. As to conditions: Herceptin i.p. (FIG. 11A).

Non-standard residues stand in square brackets, D forms with d. No end group written: not given here. pY = N[C@@H](Cc1ccc(OP(=O)(O)O)cc1)C(=O)O

T1 sequence (P27986 333-428 limits assumed): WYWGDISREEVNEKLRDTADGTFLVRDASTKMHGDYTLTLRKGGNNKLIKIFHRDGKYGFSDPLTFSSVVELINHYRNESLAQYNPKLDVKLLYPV
Procedure for BT474 xenograft: Xeno-grafts. In vivo tests have been carried out using 40 day old SCID female mice (Harlan Laboratories, Milan, IT). At day 0, animals have been totally anesthetized with intramuscular injection of 400 μg/animal (average weight 25 g) of Zoletil (Virbac) containing 0.12% Xylor (Xylazine), and transplanted subcutaneously (s.c.), in intrascapular mouse region with pellet of 17-h-extradiol (1.7 mg/sustained release pellet over 60 days, Innovative Research of America, Sarasota, Fla.). […] Tumour growth has been monitored two times weekly using calibration along two orthogonal axes: length (L) and depth (VV). The tumour volume (V) has been calculated using the formula V=L*(W2)/2.
Electroporation tumour therapy. […] Therapy has been repeated once weekly, and tumour size monitored up to 70 days.

Take “RDGGGPGGDpYAAMGACPA (RDGGGPGGD[pY]AAMGACPA; listed as Homo sapiens) [1257 phosphopeptide]”: in the assay with MAPK phosphorylation, the MAPK phosphorylation entry was “inhibition of MAPK phosphorylation”. In assay [1], the “inhibition of HER3 and p85 SH2 domain binding” value was “inhibits in specific way HER3 and p85 SH2 domain binding”. Also, in the assay with HER3, the “total level of HER3” value is “decrease”. Besides, the “cell death, times higher than controls” value in the assay with BT474 cells came out at 4 times; with MCF7 cells, 3 times. Also, the “tumour mass compared to not treated control” value with BT474 xenograft was “strongly reduces the tumour mass”.
